Experimental data from US11851431B2, “Tricyclic Janus kinase 1 inhibitors, and compositions and methods thereof” (LYNK PHARMACEUTICALS CO. LTD., priority 2018, dated 2023).

How the values were obtained:
JAK1 = target: T1, JAK1 (Homo sapiens, UniProt P23458); assay: JAK biochemical microfluidic assay (Caliper EZ Reader), JAK1; conditions: 1 mM ATP; head prints (5 nM)
T1 construct: purchased Carna Biosciences
Description: (§1) JAK activity was determined in the reaction buffer 50 mM HEPES, 0.01% Brij35, 10 mM MgCl2, 2 mM DTT by a microfluidic assay. The phosphorylation of a FAM labeled peptide substrate was monitored in the Caliper EZ Reader II (Perkin Elmer). The assay condition for each batch of enzyme (Carna Biosciences) was optimized to obtain 10% conversion rate of peptide substrate.
(§2) The test compounds were dissolved in DMSO to a stock concentration of 10 mM. Three-fold serially diluted compounds with top concentration of 5 μM were pre-incubated with JAK1, JAK2 or TYK2 for 10 min at ambient temperature. The final DMSO concentration of assay mixture was 1%. […] The reaction was stopped by adding 50 mM EDTA.
(§3) The percent inhibition was calculated by the following formula. % Inhibition=(Conversionmax−Conversionsample)/(Conversionmax−Conversionmin)*100 Conversionmax means the conversion rate in the positive well without addition of compound • […] means the conversion rate in the well without addition of enzyme • Conversionsample means the conversion rate of test compounds
(§4) The dose-response (percent inhibition) curve was plotted and IC50 values were determined by GraphPad software.

JAK2 = target: T2, JAK2 (Homo sapiens, UniProt O60674); assay: JAK biochemical microfluidic assay (Caliper EZ Reader), JAK2; conditions: 1 mM ATP; head prints (0.25 nM)
T2 construct: purchased Carna Biosciences
Description: as §1, §2, §3, §4

T2 sequence (O60674 whole entry): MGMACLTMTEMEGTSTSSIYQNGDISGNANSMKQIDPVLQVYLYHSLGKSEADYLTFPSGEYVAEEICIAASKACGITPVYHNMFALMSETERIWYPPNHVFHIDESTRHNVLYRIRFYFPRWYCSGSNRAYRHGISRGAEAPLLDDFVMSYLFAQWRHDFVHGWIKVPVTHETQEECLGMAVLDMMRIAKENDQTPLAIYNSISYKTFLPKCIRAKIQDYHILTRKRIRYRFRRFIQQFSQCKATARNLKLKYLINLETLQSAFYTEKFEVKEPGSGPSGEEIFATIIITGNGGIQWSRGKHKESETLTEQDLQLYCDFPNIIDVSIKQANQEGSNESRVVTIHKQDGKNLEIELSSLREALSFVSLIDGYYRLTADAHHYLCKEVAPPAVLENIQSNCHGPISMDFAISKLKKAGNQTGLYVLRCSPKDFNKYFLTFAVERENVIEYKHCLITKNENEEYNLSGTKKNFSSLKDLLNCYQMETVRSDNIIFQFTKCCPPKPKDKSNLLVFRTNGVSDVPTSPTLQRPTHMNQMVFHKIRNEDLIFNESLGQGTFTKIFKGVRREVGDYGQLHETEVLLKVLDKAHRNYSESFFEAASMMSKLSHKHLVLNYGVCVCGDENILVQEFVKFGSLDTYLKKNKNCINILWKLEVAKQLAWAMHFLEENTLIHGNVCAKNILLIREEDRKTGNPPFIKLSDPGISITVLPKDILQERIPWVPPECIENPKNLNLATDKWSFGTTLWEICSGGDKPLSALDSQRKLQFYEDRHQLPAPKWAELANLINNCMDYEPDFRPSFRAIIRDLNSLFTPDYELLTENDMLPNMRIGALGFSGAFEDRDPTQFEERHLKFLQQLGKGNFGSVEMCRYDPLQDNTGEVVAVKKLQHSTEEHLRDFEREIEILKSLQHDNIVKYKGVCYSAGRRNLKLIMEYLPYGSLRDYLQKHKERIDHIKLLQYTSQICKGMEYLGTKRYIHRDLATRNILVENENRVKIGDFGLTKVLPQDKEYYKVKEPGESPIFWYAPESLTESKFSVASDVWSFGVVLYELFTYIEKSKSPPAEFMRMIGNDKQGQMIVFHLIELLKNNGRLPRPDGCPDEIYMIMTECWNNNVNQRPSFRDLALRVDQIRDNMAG
T1 sequence (P23458 whole entry): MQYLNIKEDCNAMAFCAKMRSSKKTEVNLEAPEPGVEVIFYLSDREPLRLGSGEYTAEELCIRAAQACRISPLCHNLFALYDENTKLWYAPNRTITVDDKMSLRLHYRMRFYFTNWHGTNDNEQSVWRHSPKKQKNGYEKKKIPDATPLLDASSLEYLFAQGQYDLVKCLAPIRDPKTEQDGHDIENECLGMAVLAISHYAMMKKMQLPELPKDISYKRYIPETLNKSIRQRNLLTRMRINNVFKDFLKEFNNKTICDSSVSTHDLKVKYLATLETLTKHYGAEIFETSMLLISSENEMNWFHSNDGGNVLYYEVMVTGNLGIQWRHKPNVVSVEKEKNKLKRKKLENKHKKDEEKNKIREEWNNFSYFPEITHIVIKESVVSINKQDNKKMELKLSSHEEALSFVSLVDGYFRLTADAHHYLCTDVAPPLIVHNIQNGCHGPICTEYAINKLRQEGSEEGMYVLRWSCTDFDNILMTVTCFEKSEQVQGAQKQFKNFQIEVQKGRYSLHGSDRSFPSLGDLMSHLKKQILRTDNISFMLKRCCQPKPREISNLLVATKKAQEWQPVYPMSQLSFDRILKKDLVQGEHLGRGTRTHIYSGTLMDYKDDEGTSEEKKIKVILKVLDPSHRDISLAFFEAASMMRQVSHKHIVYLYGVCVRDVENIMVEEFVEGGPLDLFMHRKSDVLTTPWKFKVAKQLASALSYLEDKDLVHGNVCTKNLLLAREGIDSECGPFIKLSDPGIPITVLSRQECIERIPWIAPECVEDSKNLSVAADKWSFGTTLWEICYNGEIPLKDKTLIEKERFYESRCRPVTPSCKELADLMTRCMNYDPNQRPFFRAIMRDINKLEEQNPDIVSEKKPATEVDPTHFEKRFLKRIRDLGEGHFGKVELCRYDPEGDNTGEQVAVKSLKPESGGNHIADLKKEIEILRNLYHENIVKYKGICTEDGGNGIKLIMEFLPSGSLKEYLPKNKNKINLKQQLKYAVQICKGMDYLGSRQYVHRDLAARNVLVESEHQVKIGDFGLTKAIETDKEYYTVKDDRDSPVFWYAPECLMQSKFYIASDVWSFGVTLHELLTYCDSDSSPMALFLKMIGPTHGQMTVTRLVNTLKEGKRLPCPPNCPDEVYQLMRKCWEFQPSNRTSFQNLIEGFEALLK

Structure (SMILES) | IC50 (JAK1) [nM] | IC50 (JAK2) [nM]
CC(C)CNC(=O)NC12CC(n3cnc4cnc5[nH]ccc5c43)(C1)C2 [Example 36, 1-(3-(Imidazo[4,5-d]pyrrolo[2,3-b]pyridin-1(6H)-yl)bicyclo[1.1.1]pentan-1-yl)-3-isobutylurea] | 49.5 | –
CCCC(=O)NC12CC(n3cnc4cnc5[nH]ccc5c43)(C1)C2 [Example 9, N-(3-(imidazo[4,5-d]pyrrolo[2,3-b]pyridin-1(6H)-yl)bicyclo[1.1.1]pentan-1-yl)butyramide] | 58.7 | 441
N[C@H]1C[C@@H](n2cnc3cnc4[nH]ccc4c32)C1 [Example 2e, Cis-3-(imidazo[4,5-d]pyrrolo[2,3-b]pyridin-1(6H)-yl)cyclobutanamine 2,2,2-trifluoroacetate] | 2570 | > 5000
O=C(NC12CC(n3cnc4cnc5[nH]ccc5c43)(C1)C2)OCC1CC1 [Example 19, Cyclopropylmethyl (3-(imidazo[4,5-d]pyrrolo[2,3-b]pyridin-1(6H)-yl)bicyclo[1.1.1]pentan-1-yl)carbamate] | 51.3 | 578
CC(C)OC(=O)NC12CC(n3cnc4cnc5[nH]ccc5c43)(C1)C2 [Example 16, Isopropyl (3-(imidazo[4,5-d]pyrrolo[2,3-b]pyridin-1(6H)-yl)bicyclo[1.1.1]pentan-1-yl)carbamate] | 64 | –
NC12CC(n3cnc4cnc5[nH]ccc5c43)(C1)C2 [Example 1j, 3-(Imidazo[4,5-d]pyrrolo[2,3-b]pyridin-1(6H)-yl)bicyclo[1.1.1]pentan-1-amine 2,2,2-trifluoroacetate] | 278 | –
O=C(NC12CC(n3cnc4cnc5[nH]ccc5c43)(C1)C2)N1CC(F)(F)C1 [Example 37, 3,3-Difluoro-N-(3-(imidazo[4,5-d]pyrrolo[2,3-b]pyridin-1(6H)-yl)bicyclo[1.1.1]pentan-1-yl)azetidine-1-carboxamide] | 101 | 678
CC(C)COC(=O)NC12CC(n3cnc4cnc5[nH]ccc5c43)(C1)C2 [Example 10, Isobutyl (3-(imidazo[4,5-d]pyrrolo[2,3-b]pyridin-1(6H)-yl)bicyclo[1.1.1]pentan-1-yl)carbamate] | 165 | 868
O=C(NC12CC(n3cnc4cnc5[nH]ccc5c43)(C1)C2)c1ccc(Cl)cc1 [Example 15, 4-Chloro-N-(3-(imidazo[4,5-d]pyrrolo[2,3-b]pyridin-1(6H)-yl)bicyclo[1.1.1]pentan-1-yl)benzamide] | 82.6 | –
CCCS(=O)(=O)NC12CC(n3c(C)nc4cnc5[nH]ccc5c43)(C1)C2 [Example 48, N-(3-(2-methylimidazo[4,5-d]pyrrolo[2,3-b]pyridin-1(6H)-yl)bicyclo[1.1.1]pentan-1-yl)propane-1-sulfonamide] | 13 | 244
CNS(=O)(=O)C[C@H]1C[C@@H](n2cnc3cnc4[nH]ccc4c32)C1 [Example 44, 1-(Cis-3-(imidazo[4,5-d]pyrrolo[2,3-b]pyridin-1(6H)-yl)cyclobutyl)-N-methylmethanesulfonamide] | 159 | 604
O=C(NC1CC1)NC12CC(n3cnc4cnc5[nH]ccc5c43)(C1)C2 [Example 35, 1-Cyclopropyl-3-(3-(imidazo[4,5-d]pyrrolo[2,3-b]pyridin-1(6H)-yl)bicyclo[1.1.1]pentan-1-yl)urea] | 235 | –
COC1CN(S(=O)(=O)NC23CC(n4cnc5cnc6[nH]ccc6c54)(C2)C3)C1 [Example 21, N-(3-(imidazo[4,5-d]pyrrolo[2,3-b]pyridin-1(6H)-yl)bicyclo[1.1.1]pentan-1-yl)-3-methoxyazetidine-1-sulfonamide] | 14.2 | 326
CCS(=O)(=O)NC12CC(n3cnc4cnc5[nH]ccc5c43)(C1)C2 [Example 27, N-(3-(imidazo[4,5-d]pyrrolo[2,3-b]pyridin-1(6H)-yl)bicyclo[1.1.1]pentan-1-yl)ethanesulfonamide] | 20.2 | 291
CC(C)(C#N)CNC(=O)NC12CC(n3cnc4cnc5[nH]ccc5c43)(C1)C2 [Example 40, 1-(2-Cyano-2-methylpropyl)-3-(3-(imidazo[4,5-d]pyrrolo[2,3-b]pyridin-1(6H)-yl)bicyclo[1.1.1]pentan-1-yl)urea] | 49.4 | 355
CCCS(=O)(=O)NC12CC(n3c([C@@H](C)O)nc4cnc5[nH]ccc5c43)(C1)C2 [Example 47, (R)—N-(3-(2-(1-hydroxyethyl)imidazo[4,5-d]pyrrolo[2,3-b]pyridin-1(6H)-yl)bicyclo[1.1.1]pentan-1-yl)propane-1-sulfonamide] | 48.7 | 1110

Structure (SMILES) | IC50 (JAK1) [nM] | IC50 (JAK2) [nM]
CC(C)CC(=O)NC12CC(n3cnc4cnc5[nH]ccc5c43)(C1)C2 [Example 8, N-(3-(Imidazo[4,5-d]pyrrolo[2,3-b]pyridin-1(6H)-yl)bicyclo[1.1.1]pentan-1-yl)-3-methylbutanamide] | 47.4 | 328
O=C(NC12CC(n3cnc4cnc5[nH]ccc5c43)(C1)C2)C1CC1 [Example 12, N-(3-(Imidazo[4,5-d]pyrrolo[2,3-b]pyridin-1(6H)-yl)bicyclo[1.1.1]pentan-1-yl)cyclopropanecarboxamide] | 35.5 | –
N#CC1CN(S(=O)(=O)C[C@H]2C[C@@H](n3cnc4cnc5[nH]ccc5c43)C2)C1 [Example 45, 1-(((Cis-3-(imidazo[4,5-d]pyrrolo[2,3-b]pyridin-1(6H)-yl)cyclobutyl)methyl)sulfonyl) azetidine-3-carbonitrile] | 15.7 | 170
N#CC1CCN(C(=O)NC23CC(n4cnc5cnc6[nH]ccc6c54)(C2)C3)C1 (centres unmarked) [Example 39, 3-Cyano-N-(3-(imidazo[4,5-d]pyrrolo[2,3-b]pyridin-1(6H)-yl)bicyclo[1.1.1]pentan-1-yl)pyrrolidine-1-carboxamide] | 68.7 | 526
CCCNC(=O)NC12CC(n3cnc4cnc5[nH]ccc5c43)(C1)C2 [Example 34, 1-(3-(Imidazo[4,5-d]pyrrolo[2,3-b]pyridin-1(6H)-yl)bicyclo[1.1.1]pentan-1-yl)-3-propylurea] | 25.4 | 199
N#CCC(=O)NC12CC(n3cnc4cnc5[nH]ccc5c43)(C1)C2 [Example 11, 2-Cyano-N-(3-(imidazo[4,5-d]pyrrolo[2,3-b]pyridin-1(6H)-yl)bicyclo[1.1.1]pentan-1-yl)acetamide] | 11.7 | 166
N#CCS(=O)(=O)NC12CC(n3cnc4cnc5[nH]ccc5c43)(C1)C2 [Example 33, 1-Cyano-N-(3-(imidazo[4,5-d]pyrrolo[2,3-b]pyridin-1(6H)-yl)bicyclo[1.1.1]pentan-1-yl)methanesulfonamide] | 14.4 | 146
CC(C)S(=O)(=O)NC12CC(n3cnc4cnc5[nH]ccc5c43)(C1)C2 [Example 30, N-(3-(imidazo[4,5-d]pyrrolo[2,3-b]pyridin-1(6H)-yl)bicyclo[1.1.1]pentan-1-yl)propane-2-sulfonamide] | 25.5 | 226
COCCCS(=O)(=O)NC12CC(n3cnc4cnc5[nH]ccc5c43)(C1)C2 [Example 26, N-(3-(Imidazo[4,5-d]pyrrolo[2,3-b]pyridin-1(6H)-yl)bicyclo[1.1.1]pentan-1-yl)-3-methoxypropane-1-sulfonamide] | 26.2 | 849
CN(C)S(=O)(=O)NC12CC(n3cnc4cnc5[nH]ccc5c43)(C1)C2 [Example 24, N-(3-(imidazo[4,5-d]pyrrolo[2,3-b]pyridin-1(6H)-yl)bicyclo[1.1.1]pentan-1-yl)-N′-dimethyl-1-sulfonamide] | 23 | –
Cn1cc(S(=O)(=O)NC23CC(n4cnc5cnc6[nH]ccc6c54)(C2)C3)cn1 [Example 29, N-(3-(imidazo[4,5-d]pyrrolo[2,3-b]pyridin-1(6H)-yl)bicyclo[1.1.1]pentan-1-yl)-1-methyl-1H-pyrazole-4-sulfonamide] | 90.5 | 992
COC1CN(C(=O)NC23CC(n4cnc5cnc6[nH]ccc6c54)(C2)C3)C1 [Example 38, N-(3-(Imidazo[4,5-d]pyrrolo[2,3-b]pyridin-1(6H)-yl)bicyclo[1.1.1]pentan-1-yl)-3-methoxyazetidine-1-carboxamide] | 389 | 3300
CC(C)(C#N)COC(=O)NC12CC(n3cnc4cnc5[nH]ccc5c43)(C1)C2 [Example 42, 2-Cyano-2-methylpropyl (3-(imidazo[4,5-d]pyrrolo[2,3-b]pyridin-1(6H)-yl)bicyclo[1.1.1]pentan-1-yl)carbamate] | 142 | 965
CCN(C)S(=O)(=O)NC12CC(n3cnc4cnc5[nH]ccc5c43)(C1)C2 [Example 25, N-(3-(imidazo[4,5-d]pyrrolo[2,3-b]pyridin-1(6H)-yl)bicyclo[1.1.1]pentan-1-yl)-N′-methyl-N′-ethyl-1-sulfonamide] | 26.1 | –
N#CCCNC(=O)NC12CC(n3cnc4cnc5[nH]ccc5c43)(C1)C2 [Example 43, 1-(2-Cyanoethyl)-3-(3-(imidazo[4,5-d]pyrrolo[2,3-b]pyridin-1(6H)-yl)bicyclo[1.1.1]pentan-1-yl)urea] | 15.6 | 223
CCCS(=O)(=O)NC12CC(N(C)c3ncnc4[nH]ccc34)(C1)C2 [Example 49, N-(3-(Methyl(7H-pyrrolo[2,3-d]pyrimidin-4-yl)amino)bicyclo[1.1.1]pentan-1-yl)propane-1-sulfonamide] | > 5000 | > 5000
